# Key:
# [1] = system: healthy adult female subjects; test: Phase 1 single dose escalation, subcutaneous; vaginal photoplethysmography with visual sexual stimulation; format: in vivo, human
# Method: In a double-blind, placebo-controlled, single dose, dose escalation Phase 1 study to determine the maximum tolerated dose in healthy adult female subjects, doses of from 0.3 to 5.0 mg (0.3, 1.0, 3.0 and 5.0 mg) of bremelanotide were administered by subcutaneous injection. However, this study specifically excluded women with a diagnosis of FSD, and thus could not determine an effective dose for treatment of FSD. The study did employ a measure of pharmacodynamic effect, defined as an increase of sexual arousal response in the presence of visual sexual stimulation as measured by vaginal blood flow with vaginal photoplethysmography (using a Geer gauge device), which measures vaginal pulse amplitude.
# [2] = system: premenopausal females with FSAD and/or HSDD; test: Example 1: placebo-controlled at-home trial of subcutaneous bremelanotide, efficacy (SSEs, FSFI, FSDS-DAO); format: in vivo, human
# Method: A multi-centered, placebo-controlled, randomized, parallel group trial with fixed dose levels and designed to identify appropriate doses of bremelanotide administered by subcutaneous injection in premenopausal females with FSAD and/or HSDD, under the conditions of home use, was conducted. […] Subjects who continued to qualify for the trial then received 2 single in-clinic doses of randomized treatment (double-blind; approximately one week apart), followed by 12 weeks of double-blind treatment at home (subjects self-administered treatment as needed). Subjects were randomized (1:1:1:1) to one of four study treatment groups (placebo or doses with 0.75, 1.25, or 1.75 mg net weight bremelanotide). Randomization occurred immediately prior to the first in-clinic dose of double-blind treatment. Study drug and placebo was provided as pre-filled syringes in 0.3 mL volume, with subjects instructed on self-administration into the anterior thigh or abdomen. Enrolled subjects were premenopausal women who met the diagnostic criteria for […], or mixed […], utilizing a diagnostic screening guide including categorization of the sexual dysfunction as both acquired (vs. lifelong) and generalized (vs. situational). Subjects enrolled had previously been sexually “functional;” that is, experienced sexual arousal during sexual activity and/or a normal level of desire at some point in the past for a period of at least 2 years. […] Enrolled subjects were provided with an electronic diary system (eDiary) with instructions to complete an FSEP-R questionnaire with each sexual encounter. At selected in-clinic visits, subjects completed other assessment questionnaires, including […]-DAO, […] and WITS-9. In addition, various vital sign measures were conducted and blood and urine samples collected at selected in-clinic visits. […] The measurement period was defined as the number of events during the last four weeks of treatment minus the number of events during the baseline period, with outcomes reported for pooled results of women taking the two highest bremelanotide dose levels versus placebo. […] The FSFI is a 19-item questionnaire which provides for an additional measurement of changes over a longer recall period. • FSFI total score improvement (mean change of 3.55 vs. 1.88, p=0.0017) • Reduced associated distress related to sexual dysfunction, as measured by the Female Sexual Distress Scale-DAO (FSDS-DAO). The FSDS-DAO 15-item questionnaire is designed to assess and quantify the change in personal distress associated with […]-DAO total score improvement (mean change of -11.1 vs. -6.8, p=0.036).
# [3] = system: women diagnosed with sexual arousal disorder; conditions: single intranasal dose of 20 mg, cited from earlier work
# [4] = pooled 1.25 mg and 1.75 mg doses, baseline to end of study
compound,measurement,setting,value
"CCCC[C@H](NC(C)=O)C(=O)N[C@H]1CC(=O)NCCCC[C@@H](C(=O)O)NC(=O)[C@H](Cc2c[nH]c3ccccc23)NC(=O)[C@H](CCCNC(=N)N)NC(=O)[C@@H](Cc2ccccc2)NC(=O)[C@H](Cc2c[nH]cn2)NC1=O [bremelanotide, Ac-Nle-cyclo(-Asp-His-D-Phe-Arg-Trp-Lys)-OH]",pharmacodynamic effect (vaginal pulse amplitude),"[1]; 0.3 or 1.0 mg subcutaneous, compared to placebo or baseline",no apparent pharmacodynamic effect
same,pharmacodynamic effect (vaginal pulse amplitude),[1]; 3 and 5 mg subcutaneous,statistically significant pharmacodynamic effect
same,subcutaneous doses at which a pharmacodynamics effect was seen,[1]; normal female volunteers,≥ 3 mg
same,efficacy on all key endpoints in HSDD-only and mixed HSDD/FSAD subgroups,"[2]; 1.25 mg, 1.75 mg, and/or 1.25/1.75 mg pooled, exploratory analyses",statistically significant efficacy or a clinically significant trend versus placebo
same,"Satisfying Sexual Events (SSEs), mean at baseline",[2]; pooled 1.25 mg and 1.75 mg doses,1.6
same,"FSDS-DAO total score improvement, mean change",[2]; [4],−11.1
same,"FSFI total score improvement, mean change",[2]; [4],3.55
same,increase in SSEs,[2]; [4],50%
same,"Satisfying Sexual Events (SSEs), mean at end of study","[2]; pooled 1.25 mg and 1.75 mg doses, last four weeks of treatment",2.4
same,most optimal dose for efficacy,[2]; subcutaneous,1.75 mg
same,women with end-of-study FSFI and FSDS-DAO total score levels above 26.5 and 18,"[2]; versus placebo, exploratory analysis",higher percentage of women
same,vaginal pulse amplitude measures,[3]; compared to placebo,"without statistically relevant differences, compared to placebo"
same,reported feelings of sexual arousal,[3],statistically relevant reported feelings of sexual arousal

# — US10286034B2, “Uses of bremelanotide in therapy for female sexual dysfunction” (Palatin Technologies, Inc., priority 2012, dated 2019)
